For one data set, the system named is HeLa. The data set is described as follows: Cytotoxicity against human HeLa cells after 72 hrs by methylene blue staining. It counts as functional.
Data set [1] can be described thus: Antiproliferative activity against HUVEC after 72 hrs by resazurin dye reduction assay. It counts as cell-based. The following applies: human, HUVEC cells.
The next data set relates to K562. The data set is described as follows: Antiproliferative activity against human K562 cells after 72 hrs by resazurin dye reduction assay. It counts as functional. To be noted: K562, 72 h. (In general: Resazurin is reduced to fluorescent resorufin, in cell work by metabolically active cells.)
A further data set has as its system HT-29. Briefly: Antiproliferative activity against human HT-29 cells after 72 hrs by resazurin dye reduction assay. The following applies: HT-29, 72 h. In kind it is functional.

A value given as a limit tells only on which side of the number the result lay.

Compound `CCCCCCCCCCCCCCNNC(=O)COC` gave a CC50 in the data set on HeLa of 59.6 µM. In addition, growth in data set [1] was halved (GI50 at 72 h) at 33.6 µM. Moreover, the GI50 in the data set with K562 was found to be 66.2 µM.

For `CCCCCCCCCCCC/C=C/N(NC(=O)COC)C(=O)OC(C)(C)C`, the half-maximal cytotoxic concentration (CC50) with HeLa is 57.7 µM. In addition, growth in data set [1] was halved (GI50 at 72 h) at 36.1 µM. The GI50 with K562 worked out at 41.4 µM.

For the compound `CCCCCCCC/C=C/N(NC(=O)COC)C(=O)OC(C)(C)C`, the CC50 in the data set with HeLa was 83.2 µM. In data set [1], this compound gave a 50% growth inhibitory concentration (GI50) at 72 h of 49.9 µM. For the same compound, in the data set on K562, halving of growth (GI50) required 45 µM.

`CCCCCCCCCCCCCCN(NC(=O)COC)C(=O)OC(C)(C)C` displayed a CC50 in the data set with HeLa of 41.9 µM. For the same compound, the GI50 at 72 h in data set [1] was 12.2 µM. This compound had a GI50 with K562 of 40.9 µM.

On to `CCCCCCCC/C=C\N(NC(=O)COC)C(=O)OC(C)(C)C`, for which it took 104 µM to reach half-maximal cytotoxicity in the data set on HeLa (CC50). Also, halving of growth in data set [1] (GI50 at 72 h) required 85.5 µM. Further, in the data set on K562, the GI50 came out at 61.3 µM.

Compound `CCCCCCCCCCCC/C=C\N(NC(C)=O)C(=O)CCCCCCCCC` returned a cytotoxic concentration (CC50) in the data set on HeLa of 83.3 µM. Also, the concentration for 50% growth inhibition (GI50) at 72 h in data set [1] was 39.7 µM. Besides, in the data set on K562, the GI50 stood at 41.9 µM.

Consider `CCCCCCCCCCNNC(=O)COC`, for which half-maximal cytotoxicity in the data set on HeLa (CC50) was put at 138 µM. The 50% growth inhibitory concentration (GI50) at 72 h in data set [1] turned out to be 156 µM. Further, in the data set on K562, the concentration for 50% growth inhibition (GI50) turned out to be 167 µM.

As for `CCCCCCCCCCN(NC(=O)COC)C(=O)OC(C)(C)C`, in the data set on HeLa, the CC50 stood at 104 µM. This compound also came in with a concentration for 50% growth inhibition (GI50) at 72 h in data set [1] of 22.9 µM. In addition, in the data set on K562, the concentration for 50% growth inhibition (GI50) was 40.6 µM.

Consider `CCCCCCCCCCCC/C=C/N(NC(=O)COC)C(=O)CCCCCCCCC`, for which, in the data set with HeLa, the CC50 is above 110 µM. In data set [1], the concentration for 50% growth inhibition (GI50) at 72 h is 46.2 µM. In the data set on K562, the 50% growth inhibitory concentration (GI50) is above 110 µM.

As to `CCCCCCCCCCCCCCN(N)C(=O)OC(C)(C)C`, in the data set with HeLa, the 50% cytotoxic concentration (CC50) is 96.5 µM. It took 27.1 µM to inhibit growth in data set [1] by half (GI50 at 72 h). The compound also yielded a GI50 with K562 of 58.7 µM.

Regarding `CCCCCCCCCCN(NC(=O)COC)C(=O)CCCCCCCCC`, the 50% cytotoxic concentration (CC50) in the data set with HeLa was above 125 µM. In addition, halving of growth in data set [1] (GI50 at 72 h) required 114 µM. The same compound came in with a GI50 in the data set on K562 of 97.3 µM.

Consider `CCCCCCCCCCCC/C=C\N(NC(=O)CCl)C(=O)CCCCCCCCC`, for which the CC50 in the data set on HeLa came to 104 µM. Further, it took 57.5 µM to inhibit growth in data set [1] by half (GI50 at 72 h). This compound also gave a concentration for 50% growth inhibition (GI50) in the data set on K562 of 18.4 µM.

As for `CCCCCCCCCCCC/C=C\N(NC(=O)COC)C(=O)OC(C)(C)C`, the CC50 in the data set with HeLa was determined as 85.3 µM. Moreover, in data set [1], the GI50 at 72 h worked out at 15.8 µM. This compound also returned a concentration for 50% growth inhibition (GI50) in the data set on K562 of 28.3 µM.

For the compound `CCCCCCCCCCCC/C=C\N(NC(=O)COC)C(=O)CCCCCCCCC` [HYDRAZIDOMYCIN A], the CC50 with HeLa was 108 µM. The GI50 with HT-29 is 0.46 µM; in the data set with K562, above 110 µM. Moreover, in data set [1], halving of growth (GI50 at 72 h) required 70.7 µM.

Compound `CCCCCCCCCCCCCCN(NC(=O)COC)C(=O)CCCCCCCCC` gave a CC50 in the data set with HeLa above 110 µM. The compound also showed a GI50 at 72 h in data set [1] of 103 µM. In the data set on K562, this compound yielded a GI50 above 110 µM.

For orientation: CC50 means the concentration at which the toxic effect on the cells reaches its halfway point. A high value points to better tolerance by the cells. The GI50 is the concentration at which growth is held to half of that of the control. A lower GI50 goes with greater sensitivity of the cells.

Source of the values: ChEMBL document CHEMBL2439994, “Synthesis and biological evaluation of hydrazidomycin analogues” (Bioorg Med Chem Lett, 2013).
